# Where a SMILES comes first, the peptide text is derived from it.
# What was measured:
# [1] = human, in vivo; cited from earlier work
# [2] = tested on: COVID-19-associated severe ARDS; conditions: data of the 3 patients of example 2
# Excerpt: Example 2: Critically ill patients suffering from a COVID-19 infection in a second university care centre.
# To this date, we treated three patients in individualized therapeutic attempts with FX06 in the second university care center.
# All three patients were diagnosed with SARS-CoV-2 pneumonia resulting in severe acute respiratory distress syndrome (ARDS) and required extracorporeal membrane oxygenation (ECMO) therapy upon or early during their treatment in our facility. All patients were referred to our hospital from basic care providers due to the severity of their conditions. All patients required ECMO therapy at the time of FX06 treatment.
# FX06 400 mg was administered once per day after informed consent by the close relative.
smiles,measurement,setting,value
CC[C@H](C)[C@H](NC(=O)[C@@H]1CCCN1C(=O)[C@@H]1CCCN1C(=O)[C@@H]1CCCN1C(=O)[C@H](C)NC(=O)[C@@H]1CCCN1C(=O)[C@H](CCCNC(=N)N)NC(=O)[C@H](CC(C)C)NC(=O)[C@H](CO)NC(=O)[C@@H]1CCCN1C(=O)[C@H](C)NC(=O)[C@H](CCC(=O)O)NC(=O)[C@H](CCC(=O)O)NC(=O)[C@H](CCCNC(=N)N)NC(=O)[C@H](CCCCN)NC(=O)[C@H](CCCCN)NC(=O)[C@H](CC(=O)O)NC(=O)[C@H](CC(C)C)NC(=O)[C@@H]1CCCN1C(=O)[C@H](CCCNC(=N)N)NC(=O)[C@H](Cc1c[nH]cn1)NC(=O)CN)C(=O)N[C@@H](CO)C(=O)NCC(=O)NCC(=O)NCC(=O)N[C@@H](Cc1ccc(O)cc1)C(=O)N[C@@H](CCCNC(=N)N)C(=O)O [FX06] (H-GHRPLDKKREEAPSLRPAPPPISGGGYR-OH),tolerability / safety profile in clinical trials,[1],well tolerated with a benign safety profile
same,safety in severe ARDS,[2],safe to use

# From patent US20230293640A1, “COMPOUNDS FOR THE TREATMENT OF ENDOTHELIITIS IN CONTEXT OF VIRALLY CAUSED DISEASES” (F4 PHARMA GMBH, priority 2020, published 2023)
